Assay results published in patent publication US20260097047A1, “Small molecule inhibitors of the ribosome biogenesis factor NVL2” (Board of Regents, The University of Texas System, priority 2023, published 2026).
Read-outs that look alike come from different tables or passages of the source.

System: HCT116 cells
Assay: Cell viability assay (CellTiter-Glo, 72 hours) in HCT116 human colorectal cancer cells
Format: cell-based
In short: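 Ten-point IC50 came from an asymmetric five-parameter fit of luminescence corrected to vehicle wells. ATP content was measured by CellTiter-Glo 72 h after dosing at 37 °C. Cells were seeded at 2,000/well the day before, with 0.5% DMSO in all wells.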

[1] = Table 7, cell viability assay, CellTiter-Glo, 72 hours, scaffold drawing 42 with R^2, R^3, X/Y, Z, read-out: Activity
[2] = Table 8, analogs of scaffold drawing 43 defined by R^2, R^3, X/Y, W, read-out: Activity (IC50 class, cell viability assay)

SMILES	IC50 [1] [nM]	IC50 [2] [nM]	also measured
COCCN1C(=O)c2ccccc2Sc2cc(NC(=O)c3cccc(OC)c3)ccc21 [—(CH2)2OMe; 3-MeOPh; CH/CH; S]	< 500		
COCCN1C(=O)c2ccccc2Sc2cc(NC(=O)C3CC(=O)C3)ccc21 [—(CH2)2OMe; 3-oxo-cBu; CH/CH; S]	1000 to 5000		
COCCN1C(=O)c2ccccc2Sc2cc(NC(=O)c3ccc(CN)cc3)ccc21 [—(CH2)2OMe; 4-(NH2CH2)Ph; CH/CH; S]	1000 to 5000		
COCCN1C(=O)c2ccccc2Sc2cc(NC(=O)c3ccc(OC(F)(F)F)cc3)ccc21 [—(CH2)2OMe; 4-CF3OPh; CH/CH; S]	1000 to 5000		
COCCN1C(=O)c2ccccc2Sc2cc(NC(=O)c3ccc(C(F)(F)F)cc3)ccc21 [—(CH2)2OMe; 4-CF3Ph; CH/CH; S]	1000 to 5000		
COCCN1C(=O)c2ccccc2Sc2cc(NC(=O)c3ccc(OC(F)F)cc3)ccc21 [—(CH2)2OMe; 4-F2HCOPh; CH/CH; S]	500 to 1000		
COCCN1C(=O)c2ccccc2Sc2cc(NC(=O)c3ccc(OCF)cc3)ccc21 [—(CH2)2OMe; 4-FH2COPh; CH/CH; S]	< 500		
COCCN1C(=O)c2ccccc2Sc2cc(NC(=O)c3ccc(F)cc3)ccc21 [—(CH2)2OMe; 4-FPh; CH/CH; S]	1000 to 5000		
C#Cc1ccc(C(=O)Nc2ccc3c(c2)Sc2ccccc2C(=O)N3CCOC)cc1 [—(CH2)2OMe; 4-HCCPh; CH/CH; S]	500 to 1000		
COCCN1C(=O)c2ccccc2Sc2cc(NC(=O)c3ccc(OC)cc3)ccc21 [—(CH2)2OMe; 4-MeOPh; CH/CH; S]	< 500		
COCCN1C(=O)c2ccccc2Sc2cc(NC(=O)c3ccc(C)cc3)ccc21 [—(CH2)2OMe; 4-MePh; CH/CH; S]	1000 to 5000		
COCCN1C(=O)c2ccccc2Sc2cc(NC(=O)c3ccc(N=[N+]=[N-])cc3)ccc21 [—(CH2)2OMe; 4-N3Ph; CH/CH; S]	1000 to 5000		
CCCOc1ccc(C(=O)Nc2ccc3c(c2)Sc2ccccc2C(=O)N3CCOC)cc1 [—(CH2)2OMe; 4-PrOPh; CH/CH; S]	1000 to 5000		
C#Cc1ccc(C(=O)Nc2ccc3c(c2)Sc2ccccc2C(=O)N3CCOC)cn1 [—(CH2)2OMe; 6-(HCC)pyrid-3-yl; CH/CH; S]	1000 to 5000		
COCCN1C(=O)c2ccccc2Sc2cc(NC(C)=O)ccc21 [—(CH2)2OMe; Me; CH/CH; S]	1000 to 5000		
COCCN1C(=O)c2ccccc2Sc2cc(NC(=O)C3CCC3)ccc21 [—(CH2)2OMe; cBu; CH/CH; S]	500 to 1000		
COCCN1C(=O)c2ccccc2Sc2cc(NC(=O)C3CCCCCC3)ccc21 [—(CH2)2OMe; cHeptyl; CH/CH; S]	1000 to 5000		
COCCN1C(=O)c2ccccc2Sc2cc(NC(=O)C3CCCCC3)ccc21 [—(CH2)2OMe; cHex; CH/CH; S]	1000 to 5000		
COCCN1C(=O)c2ccccc2Sc2cc(NC(=O)C3CC3)ccc21 [—(CH2)2OMe; cPr; CH/CH; S]	1000 to 5000		
COCCN1C(=O)c2ccc(F)cc2Sc2cc(NC(=O)c3ccoc3)ccc21 [—(CH2)2OMe; furan-3-yl; CF/CH; S]	< 500		
COCCN1C(=O)c2cc(F)ccc2Sc2cc(NC(=O)c3ccoc3)ccc21 [—(CH2)2OMe; furan-3-yl; CH/CF; S]	< 500		
COCCN1C(=O)c2ccccc2Cc2cc(NC(=O)c3ccoc3)ccc21 [—(CH2)2OMe; furan-3-yl; CH/CH; CH2]	1000 to 5000		
COCCN1C(=O)c2ccccc2Sc2cc(NC(=O)c3ccno3)ccc21 [—(CH2)2OMe; isoxazol-5-yl; CH/CH; S]	1000 to 5000		
COCCN1C(=O)c2ccccc2Sc2cc(NC(=O)c3cocn3)ccc21 [—(CH2)2OMe; oxazol-4-yl; CH/CH; S]	1000 to 5000		

SMILES	IC50 [1] [nM]	IC50 [2] [nM]	also measured
COCCN1C(=O)c2ccccc2Sc2cc(NC(=O)c3cnccn3)ccc21 [—(CH2)2OMe; pyrazin-2-yl; CH/CH; S]	1000 to 5000		
COCCN1C(=O)c2ccccc2Sc2cc(NC(=O)c3ccncc3)ccc21 [—(CH2)2OMe; pyrid-4-yl; CH/CH; S]	1000 to 5000		
COCCN1C(=O)c2ccccc2Sc2cc(NC(=O)c3ncccn3)ccc21 [—(CH2)2OMe; pyrimidin-2-yl; CH/CH; S]	1000 to 5000		
COCCN1C(=O)c2ccccc2Sc2cc(NC(=O)c3ccncn3)ccc21 [—(CH2)2OMe; pyrimidin-4-yl; CH/CH; S]	1000 to 5000		
COCCN1C(=O)c2ccccc2Sc2cc(NC(=O)C3CC34CC4)ccc21 (stereo not shown) [—(CH2)2OMe; spiro[2.2]pentanyl; CH/CH; S]	1000 to 5000		
COCCN1C(=O)c2ccccc2Sc2cc(NC(=O)c3cscn3)ccc21 [—(CH2)2OMe; thiazol-4-yl; CH/CH; S]	1000 to 5000		
CCCOCCN1C(=O)c2ccccc2Sc2cc(NC(=O)c3ccc(OC)cc3)ccc21 [—(CH2)2OPr; 4-MeOPh; CH/CH; S]	< 500		
CNC(=O)CCCCCN1C(=O)c2ccccc2Sc2cc(NC(=O)c3ccoc3)ccc21 [—(CH2)5CONHMe; furan-3-yl; CH/CH; S]	1000 to 5000		
COCC1CC(C(=O)Nc2ccc3c(c2)Sc2ccccc2C(=O)N3CC#CC(F)(F)F)C1 (stereo not shown) [—CH2CCCF3; 3-MeOCH2-cBu; CH/CH; CH]		< 500	
COCC1CC(C(=O)Nc2cnc3c(c2)Sc2ccccc2C(=O)N3CC#CC(F)(F)F)C1 (stereo not shown) [—CH2CCCF3; 3-MeOCH2-cBu; CH/CH; N]		< 500	
COc1ccc(C(=O)Nc2ccc3c(c2)Sc2ccccc2C(=O)N3CC#CC(F)(F)F)cc1 [—CH2CCCF3; 4-MeOPh; CH/CH; CH]		< 500	
O=C(C=CCO)Nc1cnc2c(c1)Sc1ccccc1C(=O)N2CC#CC(F)(F)F [—CH2CCCF3; CH—═CHCH2OH; CH/CH; N]		< 500	
COCC=CC(=O)Nc1ccc2c(c1)Sc1ccccc1C(=O)N2CC#CC(F)(F)F [—CH2CCCF3; CH═CHCH2OMe; CH/CH; CH]		< 500	
COCC=CC(=O)Nc1cnc2c(c1)Sc1ccccc1C(=O)N2CC#CC(F)(F)F [—CH2CCCF3; CH═CHCH2OMe; CH/CH; N]		< 500	
CO[C@H]1C[C@@H](C(=O)Nc2cnc3c(c2)Sc2ccccc2C(=O)N3CC#CC(F)(F)F)C1 [—CH2CCCF3; cis-3-MeOcBu; CH/CH; N]		< 500	
CO[C@H]1C[C@H](C(=O)Nc2cnc3c(c2)Sc2ccccc2C(=O)N3CC#CC(F)(F)F)C1 [—CH2CCCF3; trans-3-MeOcBu; CH/CH; N]		< 500	
COCC1CC(C(=O)Nc2ccc3c(c2)Sc2ccc(F)cc2C(=O)N3CC#CCF)C1 (stereo not shown) [—CH2CCCH2F; 3-MeOCH2-cBu; CH/CF; CH]		< 500	
CO[C@H]1C[C@@H](C(=O)Nc2ccc3c(c2)Sc2ccc(F)cc2C(=O)N3CC#CCF)C1 [—CH2CCCH2F; cis-3-MeOcBu; CH/CF; CH]		< 500	
CO[C@H]1C[C@H](C(=O)Nc2ccc3c(c2)Sc2ccc(F)cc2C(=O)N3CC#CCF)C1 [—CH2CCCH2F; trans-3-MeOcBu; CH/CF; CH]		< 500	
CO[C@H]1C[C@H](C(=O)Nc2cnc3c(c2)Sc2ccccc2C(=O)N3CC#CCF)C1 [—CH2CCCH2F; trans-3-MeOcBu; CH/CH; N]		< 500	IC50 (cell viability assay, Table 10 analogs of scaffold drawing 45 defined by R2, R3, X/Y, W, read-out: Activity): < 500 nM
COCC1CC(C(=O)Nc2cnc3c(c2)Sc2cc(Cl)ccc2C(=O)N3CC#CCl)C1 (stereo not shown) [—CH2CCCl; 3-MeOCH2-cBu; CCI/CH; N]		< 500	
CO[C@H]1C[C@@H](C(=O)Nc2cnc3c(c2)Sc2cc(Cl)ccc2C(=O)N3CC#CCl)C1 [—CH2CCCl; cis-3-MeOcBu; CCl/CH; N]		< 500	
CO[C@H]1C[C@@H](C(=O)Nc2ccc3c(c2)Sc2ccc(F)cc2C(=O)N3CC#CCl)C1 [—CH2CCCl; cis-3-MeOcBu; CH/CF; CH]		< 500	
O=C(Nc1cnc2c(c1)Sc1cc(Cl)ccc1C(=O)N2CC#CCl)C1CC1CO (stereo not drawn) [—CH2CCCl; trans-2-HOCH2-cPr; CCl/CH; N]		< 500	
